Like-named read-outs stand apart in the source and are kept apart here.

We go through nine molecules from patent US5202355A, “Method of inhibiting aldose reductase in diabetic hosts using phenol derivatives” (Takasago Institute for Interdisciplinary Science Inc., priority 1991, dated 1993).

Test [1] concerns galactosemic cataract formation. Particulars: experimental rats; cited from earlier work.
Test [2] relates to motor nerve conduction velocity (MNCV). Particulars: short and long-term streptozotocin induced diabetes in rats; cited from earlier work.
Test [3] concerns peripheral nerve deterioration. Conditions: diabetic patients suffering from peripheral nerve deterioration; cited from earlier work.
The target of a further test is T1, aldose reductase (Bos taurus, UniProt P16116).
T1 construct: The enzyme was isolated from the homogenized preparation by successive chromatography; from tissue; host or cells: calf eye lens
In words: Aldose reductase inhibition (percent inhibition of enzyme activity). It counts as biochemical, calf. The procedure: The following phenols were tested for their ability to inhibit aldose reductase enzyme activity.
The assay was conducted essentially according to the procedure of S. Hayman, et al., as described in the Journal of Biological Chemistry, 240, 877 (1965).
The preparation of aldose reductase was conducted according to the procedure of K. Inagaki et al., ARchives of Biochemistry and Biophysics, 216, 337 (1982). Briefly, lenses were removed from calf eyes and homogenized. The enzyme was isolated from the homogenized preparation by successive chromatography on a DEAE-sephacel column (Pharmacia LKB Biotechnology, Piscataway, N.J.), an affinity column (Matrex gel red A; Amicon Co., Danvers, Mass.), and a Sephadex G-75 column (Pharmacia LKB Biotechnology, Piscataway, N.J.).
A reaction mixture of 0.1M sodium phosphate buffer (pH 6.2), 0.4M ammonium sulfate, 10 mm glyceraldehyde, 0.16 mm NADPH, and 10 ml propylene glycol solution containing the purified enzyme was prepared. The test compound was incubated with the enzyme in the reaction mixture.
Aldose reductase activity was assayed spectrophotometrically by determining the decrease in the NADPH concentration at 340 nm in a Beckman DU-64 spectrophotometer (Beckman, Palo Alto, Calif.).
The percent inhibition of each compound was calculated by comparing the reaction rate of the solution containing substrate and the compound at a given concentration with that of the control solution containing only substrate.

Test [4] has as its target calf lens aldose reductase. Particulars: cited from earlier work.
Where [5] appears, read: 10^-6 M (× 3.8), read-out: Percent Inhibition (%).
Where [6] appears, read: 10^-6 M (× 7.5), read-out: Percent Inhibition (%).
Setting [7] is: 10^-6 M (× 1.9), read-out: Percent Inhibition (%).

Consider `O=C(O)CN1C(=O)c2cccc3cccc(c23)C1=O` [Alrestatin, 1,3-dioxo-1H-benz (de) isoquinoline-2(3H)-acetic acid], for which, in test [1], the galactosemic cataract formation entry is “successfully prevent galactosemic cataract formation” and the sugar polyol accumulations entry is given as “blocking the sugar polyol accumulations”. Further, the “motor nerve conduction velocity (MNCV)” value in test [2] is on record as “improve motor nerve conduction velocity (MNCV)”. For the same molecule, in test [3], the “improvement in diabetic patients” value was “no improvement was observed”.

One may read the inhibition as how much of the control response was suppressed. Turning to `CCCCCCCCCCCCCCCc1cccc(O)c1C(=O)O` [Compound 1, 6-Pentadecylsalicylic Acid], the inhibition on aldose reductase (setting [5]) was found to be 27%; on aldose reductase (setting [6]), 40%.

In the case of `CCCCCC/C=C\CCCCCCCc1cccc(O)c1C(=O)O` [Compound 2, 6-[8(z)-pentadecenyl]salicylic acid], the inhibition was found to be 9% at aldose reductase (setting [7]), 42% at aldose reductase (setting [5]) and 91% on aldose reductase (setting [6]).

Turning to `CCC/C=C\C/C=C\CCCCCCCc1cccc(O)c1C(=O)O` [Compound 3, 6-[8(z),11(z)-pentadecadienyl]salicylic acid], the inhibition was determined as 1% at aldose reductase (setting [7]), 18% on aldose reductase (setting [5]) and 91% on aldose reductase (setting [6]).

For `C=CC/C=C\C/C=C\CCCCCCCc1cccc(O)c1C(=O)O` [Compound 4, 6-[8(z),11(z),14-pentadecatrienyl]salicylic acid], the inhibition worked out at 47% at aldose reductase (setting [7]), 60% on aldose reductase (setting [5]) and 77% at aldose reductase (setting [6]).

Regarding `CCC/C=C\C/C=C\CCCCCCCc1cc(O)c(C)c(O)c1` [Compound 11, 2-methyl-5-[8(z),11(z)-pentadecadienyl]resorcinol], the inhibition at aldose reductase (setting [5]) was determined as 22%; at aldose reductase (setting [6]), 43%.

Take `C=CC/C=C\C/C=C\CCCCCCCc1cc(O)c(C)c(O)c1` [Compound 12, 2-methyl-5-[8(z),11(z),14-pentadecatrienyl]resorcinol]: the inhibition was 28% on aldose reductase (setting [5]) and 53% at aldose reductase (setting [6]).

For `C=CC/C=C\C/C=C\CCCCCCCc1cc(O)cc(O)c1` [Compound 16, 5-[8(z),11(z),14-pentadecatrienyl]resorcinol], the inhibition came out at 12% at aldose reductase (read-out: Percent Inhibition (%), 10^-6 M (× 1.9)); 16% at aldose reductase (read-out: Percent Inhibition (%), 10^-6 M (× 3.8)); 85% on aldose reductase (read-out: Percent Inhibition (%), 10^-6 M (× 7.5)).

Turning to `O=C1NC(=O)[C@@]2(CCOc3ccc(F)cc32)N1` [sorbinil, d-6-fluoro-spiro [chroman-4,4'-imidazolidine]-2',5'-dione], the IC50 in test [4] (calf lens aldose reductase, read-out: IC50 concentration) is around 500 nM. Further, in test [4], the “aldose reductase inhibitor potency (in words)” value was “one of the most potent inhibitors heretofore investigated”. Moreover, the “motor nerve conduction velocity (MNCV)” value in test [2] is recorded as “improve motor nerve conduction velocity (MNCV)”. Further, the “improvement in diabetic patients” value in test [3] was “no beneficial effect was observed”.
